# According to ChEMBL document CHEMBL1201862, “PubChem BioAssay data set” (2004):
#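 Following 48 hours of exposure in 96-well plates, responses at five concentrations were used to interpolate endpoints linearly. GI50 is the concentration that inhibits growth by half.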 Active and inactive are the calls of the source. Rule as the data show it: active = GI50 up to about 1.1 µM and inactive = higher.
# Legend:
# Test in all cases: DTP human tumour cell line panel, 48 h
# A498 = tested on: A498
# A549 = tested on: A549
# HCT-116 = tested on: HCT-116
# IGROV-1 = tested on: IGROV-1
# K562 = tested on: K562
# LOX IMVI = tested on: LOX IMVI
# MCF7 = tested on: MCF7
# NCI-H460 = tested on: NCI-H460
# NCI/ADR-RES = tested on: NCI/ADR-RES
# OVCAR-3 = tested on: OVCAR-3
# RPMI-8226 = tested on: RPMI-8226
# SF-539 = tested on: SF-539
# SK-MEL-28 = tested on: SK-MEL-28
# SK-MEL-2 = tested on: SK-MEL-2
# SK-MEL-5 = tested on: SK-MEL-5
# SK-OV-3 = tested on: SK-OV-3
# SNB-75 = tested on: SNB-75
# SR = tested on: SR
# UACC-257 = tested on: UACC-257
# UO-31 = tested on: UO-31
Structure (SMILES),GI50 (A498),GI50 (A549),GI50 (HCT-116),GI50 (IGROV-1),GI50 (K562),GI50 (LOX IMVI),GI50 (MCF7),GI50 (NCI-H460),GI50 (NCI/ADR-RES),GI50 (OVCAR-3),GI50 (RPMI-8226),GI50 (SF-539),GI50 (SK-MEL-28),GI50 (SK-MEL-2),GI50 (SK-MEL-5),GI50 (SK-OV-3),GI50 (SNB-75),GI50 (SR),GI50 (UACC-257),GI50 (UO-31)
CC1=Cc2ccc(C)cc2C(=O)C1=O,22.4 µM (inactive),23.7 µM (inactive),5.47 µM (inactive),14.4 µM (inactive),2.07 µM (inactive),4.66 µM (inactive),6.97 µM (inactive),19.8 µM (inactive),18.8 µM (inactive),4.79 µM (inactive),2.16 µM (inactive),6.28 µM (inactive),21.6 µM (inactive),19.9 µM (inactive),20.4 µM (inactive),13.9 µM (inactive),8.3 µM (inactive),1.58 µM (inactive),5.89 µM (inactive),1.64 µM (inactive)
NNc1nncn1N,> 100 µM (inactive),> 100 µM (inactive),> 100 µM (inactive),> 100 µM (inactive),> 76 µM (inactive),> 90.4 µM (inactive),> 100 µM (inactive),> 100 µM (inactive),> 90.6 µM (inactive),> 49.7 µM (inactive),72.1 µM (inactive),> 53.8 µM (inactive),> 100 µM (inactive),> 100 µM (inactive),> 100 µM (inactive),> 100 µM (inactive),> 100 µM (inactive),39.1 µM (inactive),> 100 µM (inactive),84.1 µM (inactive)
COC(CN(C)C(=S)Nc1cccc2ccccc12)OC,> 10 µM (inactive),> 10 µM (inactive),> 10 µM (inactive),> 10 µM (inactive),> 10 µM (inactive),> 10 µM (inactive),> 10 µM (inactive),> 10 µM (inactive),> 10 µM (inactive),> 10 µM (inactive),> 10 µM (inactive),> 10 µM (inactive),> 10 µM (inactive),> 10 µM (inactive),> 10 µM (inactive),> 10 µM (inactive),> 10 µM (inactive),> 10 µM (inactive),> 10 µM (inactive),> 10 µM (inactive)
O=C(N/N=C1/C(=O)c2c3ccccc3cc3cccc1c23)c1ccccc1,22.1 µM (inactive),12.2 µM (inactive),30.8 µM (inactive),25.4 µM (inactive),> 59.6 µM (inactive),37.9 µM (inactive),30.4 µM (inactive),16.9 µM (inactive),40 µM (inactive),42.3 µM (inactive),> 80.4 µM (inactive),37.1 µM (inactive),> 54.8 µM (inactive),33.2 µM (inactive),23.6 µM (inactive),31.8 µM (inactive),27.2 µM (inactive),> 58.6 µM (inactive),> 62.1 µM (inactive),30.9 µM (inactive)
OCCOc1ccc(-c2cc(-c3ccccn3)nc(-c3ccccn3)c2)cc1,3.3 µM (inactive),0.172 µM (active),0.115 µM (active),0.286 µM (active),0.107 µM (active),0.0916 µM (active),0.277 µM (active),0.0849 µM (active),0.202 µM (active),0.11 µM (active),0.242 µM (active),0.19 µM (active),0.249 µM (active),0.115 µM (active),0.23 µM (active),0.308 µM (active),0.458 µM (active),0.11 µM (active),0.481 µM (active),0.124 µM (active)
O=c1ccn(CC2(CO)CCCC2)c(=O)[nH]1,7.64 µM (inactive),> 100 µM (inactive),> 100 µM (inactive),> 100 µM (inactive),> 100 µM (inactive),> 100 µM (inactive),> 100 µM (inactive),> 100 µM (inactive),> 100 µM (inactive),> 100 µM (inactive),> 100 µM (inactive),> 100 µM (inactive),> 100 µM (inactive),> 100 µM (inactive),> 100 µM (inactive),> 100 µM (inactive),> 100 µM (inactive),> 100 µM (inactive),> 100 µM (inactive),> 100 µM (inactive)
[N-]=[N+]=NCC(=O)c1cnc(O)nc1O,> 100 µM (inactive),> 100 µM (inactive),> 100 µM (inactive),> 100 µM (inactive),> 100 µM (inactive),> 100 µM (inactive),> 100 µM (inactive),> 100 µM (inactive),> 100 µM (inactive),> 100 µM (inactive),> 100 µM (inactive),> 100 µM (inactive),> 100 µM (inactive),> 100 µM (inactive),> 100 µM (inactive),> 100 µM (inactive),> 100 µM (inactive),> 100 µM (inactive),> 100 µM (inactive),> 100 µM (inactive)
NNC(=O)CC(=O)Nc1cccc(Cl)c1,> 100 µM (inactive),> 100 µM (inactive),> 100 µM (inactive),> 100 µM (inactive),> 100 µM (inactive),> 100 µM (inactive),> 100 µM (inactive),> 100 µM (inactive),2.21 µM (inactive),> 100 µM (inactive),> 100 µM (inactive),> 100 µM (inactive),> 100 µM (inactive),> 100 µM (inactive),> 100 µM (inactive),> 100 µM (inactive),> 100 µM (inactive),> 100 µM (inactive),25.3 µM (inactive),> 100 µM (inactive)
CCOC(=O)C(=O)/C(=C/N1C(=O)CC(=O)NC1=S)C(=O)OCC,83.6 µM (inactive),> 100 µM (inactive),> 100 µM (inactive),> 100 µM (inactive),> 100 µM (inactive),> 100 µM (inactive),> 100 µM (inactive),> 100 µM (inactive),> 100 µM (inactive),0.719 µM (active),> 100 µM (inactive),> 100 µM (inactive),> 100 µM (inactive),> 100 µM (inactive),> 100 µM (inactive),> 100 µM (inactive),10.3 µM (inactive),> 100 µM (inactive),> 100 µM (inactive),26.8 µM (inactive)
COCN1C(=O)[C@@H]2CCCN2C(=O)c2ccc([N+](=O)[O-])cc21,> 100 µM (inactive),> 100 µM (inactive),> 100 µM (inactive),> 100 µM (inactive),> 100 µM (inactive),> 100 µM (inactive),> 100 µM (inactive),> 100 µM (inactive),> 100 µM (inactive),> 100 µM (inactive),> 100 µM (inactive),> 100 µM (inactive),> 100 µM (inactive),> 100 µM (inactive),> 100 µM (inactive),> 100 µM (inactive),> 100 µM (inactive),48.4 µM (inactive),> 100 µM (inactive),> 100 µM (inactive)
